Laboratory results reported in ChEMBL document CHEMBL1125278, “Novel cerebroprotective agents with central nervous system stimulating activity. 2. Synthesis and pharmacology of the 1-(acylamino)-7-hydroxyindan derivatives” (1991).
“And” between values parts separate entries of the source, which are not always exact repeats. Equal values may be shown once.

Columns and labels:
Type in all cases: functional
Mus musculus [1] = assay: Time of recovery of spontaneous movement (SMT) in seconds was measured after administration of 10 mg/kg orally in mice for the promotional effect on recovery from coma.; conditions: route oral
Mus musculus [2] = assay: Spontaneous movement (SMT) in seconds, was measured after oral administration of 30 mg/kg in mice to test for promoting effects on recovery from coma.
Mus musculus [3] = assay: Time of recovery of righting reflux (RRT) in seconds was measured after oral administration of 30 mg/kg in mice for the promotional effect on recovery from coma.
Mus musculus [4] = assay: Time of recovery of righting reflux (RRT) in seconds was measured after oral administration of 100 mg/kg orally in mice for the promotional effect on recovery from coma.
Mus musculus [5] = assay: Time of recovery of righting reflux (RRT) in seconds was measured after oral administration of 10 mg/kg orally in mice for the promotional effect on recovery from coma.
Mus musculus [6] = assay: Time of recovery of righting reflux (RRT) in seconds was measured after oral administration of 30 mg/kg orally in mice for the promotional effect on recovery from coma.
Mus musculus [7] = assay: Time of recovery of spontaneous movement (SMT) in seconds was measured after administration of 100 mg/kg orally in mice for the promotional effect on recovery from coma.; conditions: route oral
Mus musculus [8] = assay: Antihypoxic effect by the survival time (SVT) in mice at a dose of 3 mg/kg administered intraperitoneally.; conditions: route intraperitoneal
Mus musculus [9] = assay: Antihypoxic effect by the ratio of survival time (SVT) of test mice to that of control group at a dose of 10 mg/kg administered intraperitoneally.; conditions: route intraperitoneal
Mus musculus [10] = assay: Antihypoxic effect tested by the ratio of survival time (SVT) of test mice to that of control group, dosed intraperitoneally at 30 mg/kg; conditions: route intraperitoneal
Mus musculus [11] = assay: Antihypoxic effect tested by the ratio of survival time (SVT) of test mice to that of control group, dosed orally 30 mg/kg; conditions: route oral
Mus musculus [12] = assay: Compound was tested for the anesthetic effect and the sleeping time (ST) was recorded at a dose of 10 mg/kg administered intraperitoneally.; conditions: route intraperitoneal
Mus musculus [13] = assay: Compound was tested for the anesthetic effect and the sleeping time (ST) was recorded at a dose of 30 mg/kg administered intraperitoneally.; conditions: route intraperitoneal
Mus musculus [14] = assay: Compound was tested for the anesthetic effect and the sleeping time (ST) was recorded at a dose of 3 mg/kg administered intraperitoneally.; conditions: route intraperitoneal
Mus musculus [15] = assay: Time of recovery of spontaneous movement (SMT) in seconds was measured after administration of 1 mg/kg orally in mice for the promotional effect on recovery from coma.; conditions: route oral
Mus musculus [16] = assay: Time of recovery of righting reflux (RRT) in seconds was measured after oral administration of 3 mg/kg in mice for the promotional effect on recovery from coma.
Mus musculus [17] = assay: Time of recovery of righting reflux (RRT) in seconds was measured after oral administration of 10 mg/kg in mice for the promotional effect on recovery from coma.
Mus musculus [18] = assay: Time of recovery of righting reflux (RRT) in seconds was measured after oral administration of 1 mg/kg in mice for the promotional effect on recovery from coma.
Mus musculus [19] = assay: Time of recovery of spontaneous movement (SMT) in seconds was measured after administration of 3 mg/kg orally in mice for the promotional effect on recovery from coma.; conditions: route oral
Mus musculus [20] = assay: Compound was tested for the anesthetic effect and the sleeping time (ST) was recorded at a dose of 3 mg/kg administered subcutaneously.; conditions: route subcutaneous
Mus musculus [21] = assay: Antihypoxic effect by the ratio of survival time (SVT) of test mice to that of control group at a dose of 30 mg/kg administered subcutaneously.; conditions: route subcutaneous
Mus musculus [22] = assay: Time of recovery of righting reflux (RRT) in seconds was measured after iv administration of 0.625 mg/kg in mice for the promotional effect on recovery from coma.
Mus musculus [23] = assay: Time of recovery of righting reflux (RRT) in seconds was measured after iv administration of 1.25 mg/kg in mice for the promotional effect on recovery from coma.
Mus musculus [24] = assay: Time of recovery of righting reflux (RRT) in seconds was measured after iv administration of 2.5 mg/kg in mice for the promotional effect on recovery from coma.
Mus musculus [25] = assay: Antihypoxic effect by the ratio of survival time (SVT) of test mice to that of control group at a dose of 0.3 mg/kg administered intraperitoneally.; conditions: route intraperitoneal
Mus musculus [26] = assay: Antihypoxic effect by the ratio of survival time (SVT) of test mice to that of control group at a dose of 1 mg/kg administered intraperitoneally.; conditions: route intraperitoneal
Mus musculus [27] = assay: Antihypoxic effect by the ratio of survival time (SVT) of test mice to that of control group at a dose of 3 mg/kg administered intraperitoneally.; conditions: route intraperitoneal
Mus musculus [28] = assay: Time of recovery of spontaneous movement (SMT) in seconds was measured after iv administration of 0.625 mg/kg in mice for the promotional effect on recovery from coma.
Mus musculus [29] = assay: Time of recovery of spontaneous movement (SMT) in seconds was measured after iv administration of 1.25 mg/kg in mice for the promotional effect on recovery from coma.
Mus musculus [30] = assay: Time of recovery of spontaneous movement (SMT) in seconds was measured after iv administration of 2.5 mg/kg in mice for the promotional effect on recovery from coma.
Mus musculus [31] = assay: Compound was tested for the anesthetic effect and the sleeping time (ST) was recorded at a dose of 0.3 mg/kg administered intraperitoneally.; conditions: route intraperitoneal
Mus musculus [32] = assay: Compound was tested for the anesthetic effect and the sleeping time (ST) was recorded at a dose of 1 mg/kg administered intraperitoneally.; conditions: route intraperitoneal

Cc1cc(C)c2c(c1O)C(NC(=O)CN1CCN(C)CC1)C(C)(C)C2 (stereo unspecified)
SMT (Mus musculus [1]): 60.9 s
SMT (Mus musculus [2]; 30 mg/kg): 43.1 s and 49.8 s
RRT (Mus musculus [3]): 54.9 s
RRT (Mus musculus [4]): 25.8 s
RRT (Mus musculus [5]): 61.2 s
RRT (Mus musculus [6]): 45.7 s
SMT (Mus musculus [7]): 36.2 s
SVT (Mus musculus [8]): 93%
SVT (Mus musculus [9]): 92.5%
SVT (Mus musculus [10]; 30 mg/kg): 145.6% and 145.2%
SVT (Mus musculus [11]): 86.4%
ST (Mus musculus [12]): 78.8 s
ST (Mus musculus [13]): 84.3 s
ST (Mus musculus [14]): 92.7 s

Cc1cc(C)c2c(c1O)C(N)C(C)(C)C2 (stereo unspecified)
SMT (Mus musculus [1]): 62.5 s
SMT (Mus musculus [15]): 92.3 s
SMT (Mus musculus [2]): 42 s
RRT (Mus musculus [16]): 66.2 s
RRT (Mus musculus [3]): 37.2 s
RRT (Mus musculus [17]): 54.8 s
RRT (Mus musculus [18]): 62.8 s
SMT (Mus musculus [19]): 105.8 s
SVT (Mus musculus [8]): 156.2%
ST (Mus musculus [20]): 112 s and 82.1 s and 76.1 s
SVT (Mus musculus [9]): 217%
SVT (Mus musculus [10]): 298.1%
SVT (Mus musculus [11]): 142.1%
SVT (Mus musculus [21]): 298.2%

NC(=O)[C@@H]1CCCN1C(=O)[C@H](Cc1c[nH]cn1)NC(=O)[C@@H]1CCC(=O)N1 [PROTIRELIN]
RRT (Mus musculus [22]): 100.1 s
RRT (Mus musculus [23]): 34.1 s
RRT (Mus musculus [24]): 40.8 s
SVT (Mus musculus [25]): 83.8%
SVT (Mus musculus [26]): 47.1%
SVT (Mus musculus [10]): 43.4%
SVT (Mus musculus [27]): 43.4%
SMT (Mus musculus [28]): 118.2 s
SMT (Mus musculus [29]): 48.2 s
SMT (Mus musculus [30]): 40.9 s
ST (Mus musculus [31]): 83.1 s
ST (Mus musculus [32]): 70.7 s
ST (Mus musculus [14]): 73.2 s
